According to US20220040158A1, “AZD0328 DOSAGE REGIME FOR TREATING COGNITIVE IMPAIRMENT” (ASTRAZENECA AB, priority 2018, published 2022):
Read-outs that look alike come from different tables or passages of the source.

Columns and labels:
[1] = AQW051 single-dose cohort pharmacokinetics (Feuerbach et al, phase I); assay type: in vivo, human
Excerpt: (§1) We thus set out to use summary cohort-level pharmacokinetic (PK) statistics for AQW051 (Feuerbach et al, ibid) and our own unpublished results for AZD0328 (A Phase I, Single-Centre, Randomized, Double-Blind, Placebo-Controlled, Parallel Group Study to Assess the Safety, Tolerability and Pharmacokinetics of AZD0328 in Healthy Volunteers after Oral Single Ascending Doses, Study Code D0190C00005, Ed. 1, 8 Apr. 2008) to establish a safe an efficacious dose range and regime for AZD0328 in Parkinson's disease patients.
(§2) From the clinical study documentation, for each dose cohort t1/2, tmax, and Cmax could be established. For example, assuming dose-proportionality, half-life t1/2 was estimated for both drugs as the mean over of t1/2 over the different single-dose cohorts, as described in the study publications. We could then determine a working value for the elimination time constant ke in equation (2): […]
(§3) Dose and dosing regime selection for AZD0328 is targeted to achieve similar levels of α7 nAChR agonism to those reported to deliver clinical improvement in MCI with AQW051 (Trenkwalder et al., ibid).

[2] = single compartment oral dosing PK model for AQW051; set-up: species or system human; conditions: model parameter estimate
Excerpt: (§4) In more detail, a single compartment oral dosing model with first order absorption as shown in equation (1) for a single dose at time t=0. This population-level model describes the concentration time dynamics of the study cohort given dose D of the drug. Here t is time, C(t) is drug concentration over time, Cmax is maximum achieved concentration at a particular dose, F is bioavailability, D is dose, Vd is volume of distribution, kα is the absorption time constant, and ke is the elimination time constant.
as §2
(§5) From equation (1), the time of maximum concentration tmax is then available from (3):
(§6) With dose-proportionality, tmax is independent of dose and is again obtained from the mean over the different single-dose cohorts. The absorption time constant kα is established by identifying the kα which results in a zero error e=0:
(§7) This is accomplished by graphing e(kα) over a dense grid in kα, identifying a region around the zero-crossing in which e(.) is monotonic in k0, and then using the interpolation function to estimate the kα with e(kα)=0. With the assumption of dose proportionality, we estimated the mean of Cmax/D over the single-dose cohorts and defined the constant K
(§8) Then from equation (1) and the definition of Cmax,
(§9) For multiple doses at times τi, we then assume linearity and hav
(§10) All equations were implemented directly in R version 3.2.1 (2015 Jun. 18, see https://cran.r-project.org/).
as §3

[3] = geometric mean, cited from earlier work
[4] = system: Parkinson's disease patients; conditions: cited from earlier work
α7 nAChR [5] = biological target: T1, α7 nAChR (Homo sapiens, UniProt P36544); conditions: from the literature (Feuerbach et al.); read-out: EC50 as α7 nAChR agonist; cited from earlier work
schizophrenia patients = experiment: clinical evaluation of cognition in schizophrenia patients; assay type: in vivo, human; conditions: doses up to 0.675 mg
Excerpt: In the case of schizophrenia, it has been widely postulated that direct-acting agonists of various cholinergic receptors including α7 nAChRs, could normalize GABAergic, glutamergic, or dopaminergic function in the dorsolateral prefrontal cortex (dIPFC), dysfunction of which has been consistently associated with cognitive deficits in this condition. […] To date, despite numerous trials, no α7 nAChR agonist has been approved for use in the treatment of schizophrenia.
(§11) In Rhesus monkeys, spatial working memory was enhanced by doses of AZD0328 above 0.001 mg/kg (plasma compound levels of ca 0.2 times the whole cell current IC50).

Rhesus monkeys = experiment: spatial working memory in Rhesus monkeys; assay type: in vivo, Rhesus monkey
Experimental: as §11

α7 nAChR [6] = biological target: T1, α7 nAChR; experiment: α7 nAChR binding (inhibition of radioligand binding)
Excerpt: (§12) AZD0328 is ca 20-fold selective to the α1β1γδ nAChR, and 1000-fold selective to other nicotinic receptors and a panel of other targets (as determined by inhibition of radioligand binding).

rats = conditions: oral administration (WO2008/115139); cited from earlier work
[7] = Phase I oral single ascending dose study of AZD0328 in healthy volunteers (safety, tolerability, pharmacokinetics); assay type: in vivo, human
Excerpt: as §1, §2
Capsules used in the study on which the modelling described above was performed were made by blending AZD0328 tartrate (monotartrate/monohydrate form) with mannitol, povidone and sodium starch glycolate (see Table 5). The blend was the subjected to wet granulation with water as the granulation fluid, then dried before blending with sodium stearyl fumarate. The resultant composition was filled into size 4 hard gelatin capsules (containing gelatin (Ph Eur), titanium dioxide (Ph Eur), and iron oxide black, red and yellow (E172). In embodiments, the compositions for use are capsules according to Table 5.

α1β1γδ nAChR = α1β1γδ nAChR (Homo sapiens, UniProt P02708+P07510+Q07001); experiment: selectivity by inhibition of radioligand binding, α1β1γδ nAChR; conditions: relative to α7 nAChR
Excerpt: as §12

α7 nAChR [8] = biological target: T1, α7 nAChR; experiment: Ki for efficacy used as threshold in PK figures; conditions: threshold indicated in FIGS. 3-5
α7 nAChR [9] = biological target: T1, α7 nAChR; experiment: activation of whole cell current at α7 nAChR; assay type: cell-based
[10] = system: other nicotinic receptors and a panel of other targets; experiment: selectivity by inhibition of radioligand binding, other nicotinic receptors and panel; conditions: relative to α7 nAChR
Excerpt: as §12

[11] = single compartment oral dosing PK model for AZD0328; set-up: species or system human; conditions: model parameter estimate
Excerpt: as §4, §2, §5, §6, §7, §8, §9, §10

[12] = healthy volunteers, oral single dose 0.025 mg, cohort geometric mean
[13] = healthy volunteers, oral single dose 0.075 mg, cohort geometric mean
[14] = healthy volunteers, oral single dose 0.23 mg, cohort geometric mean
[15] = healthy volunteers, oral single dose 0.68 mg, cohort geometric mean
[16] = healthy volunteers, oral single dose 1.35 mg, cohort geometric mean
[17] = healthy volunteers, oral single dose 2 mg, cohort geometric mean

T1 sequence (P36544 23-502): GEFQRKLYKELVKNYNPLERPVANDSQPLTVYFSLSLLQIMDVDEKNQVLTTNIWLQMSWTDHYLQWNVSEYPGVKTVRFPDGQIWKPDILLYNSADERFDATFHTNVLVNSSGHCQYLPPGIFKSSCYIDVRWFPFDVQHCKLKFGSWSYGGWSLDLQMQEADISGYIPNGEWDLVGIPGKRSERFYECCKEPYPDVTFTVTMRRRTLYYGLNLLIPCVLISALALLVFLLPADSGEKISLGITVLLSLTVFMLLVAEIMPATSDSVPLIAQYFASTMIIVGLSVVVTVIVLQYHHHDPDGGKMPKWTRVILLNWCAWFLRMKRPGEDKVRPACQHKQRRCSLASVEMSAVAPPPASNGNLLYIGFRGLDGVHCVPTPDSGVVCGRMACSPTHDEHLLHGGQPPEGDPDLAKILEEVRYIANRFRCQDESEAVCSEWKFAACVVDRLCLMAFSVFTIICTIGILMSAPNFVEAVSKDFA
Sequence of α1β1γδ nAChR (P02708 21-457): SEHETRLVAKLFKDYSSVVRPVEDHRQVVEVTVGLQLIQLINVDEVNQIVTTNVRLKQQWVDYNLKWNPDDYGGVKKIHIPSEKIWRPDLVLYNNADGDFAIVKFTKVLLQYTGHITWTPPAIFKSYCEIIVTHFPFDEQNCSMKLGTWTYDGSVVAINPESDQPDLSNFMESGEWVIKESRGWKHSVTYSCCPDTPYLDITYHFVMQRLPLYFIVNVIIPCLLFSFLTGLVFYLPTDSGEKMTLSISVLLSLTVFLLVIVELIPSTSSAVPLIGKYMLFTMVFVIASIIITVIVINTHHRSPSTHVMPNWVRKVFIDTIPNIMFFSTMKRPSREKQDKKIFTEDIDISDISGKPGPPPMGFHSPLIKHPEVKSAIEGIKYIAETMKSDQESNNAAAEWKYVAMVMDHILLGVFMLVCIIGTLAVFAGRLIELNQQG
Sequence of α1β1γδ nAChR (P11230 24-501 partner): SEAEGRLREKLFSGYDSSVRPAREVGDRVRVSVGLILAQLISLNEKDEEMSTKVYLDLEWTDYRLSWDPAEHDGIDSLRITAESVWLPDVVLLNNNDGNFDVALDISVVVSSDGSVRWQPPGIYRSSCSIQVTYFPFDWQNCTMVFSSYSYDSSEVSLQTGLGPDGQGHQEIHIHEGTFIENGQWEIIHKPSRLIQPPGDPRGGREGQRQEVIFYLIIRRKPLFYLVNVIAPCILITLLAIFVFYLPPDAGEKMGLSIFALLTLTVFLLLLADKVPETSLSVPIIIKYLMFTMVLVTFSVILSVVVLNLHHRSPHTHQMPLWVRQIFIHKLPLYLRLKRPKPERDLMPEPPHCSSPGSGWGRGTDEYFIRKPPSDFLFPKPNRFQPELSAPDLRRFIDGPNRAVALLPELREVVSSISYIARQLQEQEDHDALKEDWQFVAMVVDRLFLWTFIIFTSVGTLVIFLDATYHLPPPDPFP
Sequence of α1β1γδ nAChR (P07510 23-517): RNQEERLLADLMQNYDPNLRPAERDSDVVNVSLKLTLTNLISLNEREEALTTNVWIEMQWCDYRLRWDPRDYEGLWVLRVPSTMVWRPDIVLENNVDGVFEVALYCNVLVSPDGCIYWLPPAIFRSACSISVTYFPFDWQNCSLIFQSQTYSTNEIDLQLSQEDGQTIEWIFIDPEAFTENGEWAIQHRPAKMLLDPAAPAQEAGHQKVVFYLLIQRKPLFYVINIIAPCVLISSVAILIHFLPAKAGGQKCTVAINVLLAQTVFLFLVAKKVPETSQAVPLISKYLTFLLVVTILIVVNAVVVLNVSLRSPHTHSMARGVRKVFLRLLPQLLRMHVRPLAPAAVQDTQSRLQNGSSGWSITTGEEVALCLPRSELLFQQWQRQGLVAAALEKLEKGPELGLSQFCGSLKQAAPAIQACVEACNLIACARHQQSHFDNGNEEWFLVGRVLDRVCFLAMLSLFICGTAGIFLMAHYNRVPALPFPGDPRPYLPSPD
Sequence of α1β1γδ nAChR (Q07001 22-517): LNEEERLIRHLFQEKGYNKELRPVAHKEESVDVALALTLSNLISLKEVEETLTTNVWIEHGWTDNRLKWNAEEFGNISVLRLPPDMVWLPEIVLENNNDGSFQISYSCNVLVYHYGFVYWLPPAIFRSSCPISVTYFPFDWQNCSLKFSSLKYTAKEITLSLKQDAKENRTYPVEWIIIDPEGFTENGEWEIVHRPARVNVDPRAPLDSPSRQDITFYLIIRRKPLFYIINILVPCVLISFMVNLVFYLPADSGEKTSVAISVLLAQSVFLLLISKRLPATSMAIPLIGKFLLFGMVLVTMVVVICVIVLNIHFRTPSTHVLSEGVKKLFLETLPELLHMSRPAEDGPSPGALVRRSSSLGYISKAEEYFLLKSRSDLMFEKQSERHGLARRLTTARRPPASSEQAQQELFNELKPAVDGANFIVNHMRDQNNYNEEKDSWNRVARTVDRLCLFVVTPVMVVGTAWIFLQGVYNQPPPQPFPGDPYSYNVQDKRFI

For Cc1ccc(-c2ccc(OC3CN4CCC3CC4)cn2)cc1 (stereo not drawn) [AQW051], the Cmax/Dose ([1]; Cohort 1, single dose 0.5 mg) was 0.53 ng/mL/mg, the Cmax/Dose ([1]; Cohort 2, single dose 2.5 mg) was 0.48 ng/mL/mg and the Cmax/Dose ([1]; Cohort 3, single dose 7.5 mg) was 0.58 ng/mL/mg. It also gave a Cmax/Dose ([1]; Cohort 4, single dose 25 mg) of 0.82 ng/mL/mg, a Cmax/Dose ([1]; Cohort 5, single dose 75 mg) of 0.63 ng/mL/mg and a Cmax/Dose ([1]; Cohort 6, single dose 200 mg) of 0.81 ng/mL/mg. For the same molecule, the Cmax/Dose ([1]; mean over cohorts) was 0.64 ng/mL/mg, the t1/2 ([1]; mean over cohorts) was 20.9 h and the tmax ([1]; mean over cohorts) was 6.80 h. The “K (equation 7 and 8)” value [2] was 0.88 ng/mL/mg, the “ka (absorption time constant)” value [2] was 0.40 h⁻¹ and the “ke (elimination time constant)” value [2] was 0.033 h⁻¹. For the same molecule, the Cmax ([3]; Cohort 1, single dose 0.5 mg) was 0.266 ng/mL, the tmax ([3]; Cohort 1, single dose 0.5 mg) was 8 h and the Cmax ([3]; Cohort 2, single dose 2.5 mg) was 1.20 ng/mL. The tmax ([3]; Cohort 2, single dose 2.5 mg) was 8 h, the Cmax ([3]; Cohort 3, single dose 7.5 mg) was 4.34 ng/mL and the t1/2 ([3]; Cohort 3, single dose 7.5 mg) was 22.0 h. The tmax ([3]; Cohort 3, single dose 7.5 mg) was 7.98 h, the Cmax ([3]; Cohort 4, single dose 25 mg) was 20.6 ng/mL and the t1/2 ([3]; Cohort 4, single dose 25 mg) was 22.7 h. The tmax ([3]; Cohort 4, single dose 25 mg) was 8 h, the Cmax ([3]; Cohort 5, single dose 75 mg) was 47.0 ng/mL and the t1/2 ([3]; Cohort 5, single dose 75 mg) was 18.8 h. The tmax ([3]; Cohort 5, single dose 75 mg) was 4.04 h, the Cmax ([3]; Cohort 6, single dose 200 mg) was 162 ng/mL and the t1/2 ([3]; Cohort 6, single dose 200 mg) was 20.0 h. The tmax ([3]; Cohort 6, single dose 200 mg) was 4.77 h, the “effect size, improvement in MCI” value ([4]; PD patients, 10 mg once daily, P=0.073) was 0.4 and the “increase in cognitive function” value ([4]; PD patients, 10 mg) was “not significantly different from the control group”. The “effect size, improvement in MCI” value ([4]; PD patients, 50 mg once daily, P=0.024) was 0.5, the “improvement in cognitive function” value ([4]; PD patients, 50 mg) was “significantly different from the placebo cohort” and the cognitive function ([4]; Trenkwalder et al 2016 study) was “improvements in cognitive function can be realised”. For the same molecule, the EC50 (α7 nAChR [5]) was 40 nM.
For c1cnc2c(c1)C[C@@]1(CN3CCC1CC3)O2 [AZD0328, (3R)-spiro[1-azabicyclo[2.2.2]octane-3,2′(3′H)-furo[2,3-b]pyridine], the improvement in cognition (schizophrenia patients) was “did not show a statistically significant improvement in cognition”, the “doses enhancing spatial working memory” value (Rhesus monkeys) was “above 0.001 mg/kg” and the IC50 (α7 nAChR [6]) was 3 nM. The long-term potentiation (rats) was “significantly improve”, the operant conditioning (rats) was “significantly improve” and the adverse effects ([7]; clinical studies, single dose 0.68 mg) was “adverse effects, especially, nausea become apparent”. The “prevalence of adverse events” value ([7]; clinical studies, single doses from 0.25 mg to 0.50 mg) was “markedly reduced”, the Cmax [7, 12] was 0.63 nM and the t1/2 [7, 12] was 6.25 h. For the same molecule, the Cmax [7, 13] was 2.08 nM, the t1/2 [7, 13] was 5.94 h and the Cmax [7, 14] was 6.37 nM. The t1/2 [7, 14] was 6.69 h, the Cmax [7, 15] was 15 nM and the t1/2 [7, 15] was 5.98 h. For the same molecule, the Cmax [7, 16] was 31 nM, the t1/2 [7, 16] was 6.87 h and the Cmax [7, 17] was 43.9 nM. For the same molecule, the tmax [7, 17] was 2.45 h, the half-life ([7]; human, plasma, oral, mean over cohorts) was 109 min and the tmax ([7]; human, plasma, oral, mean over cohorts, read-out: tmax) was 6.21 h. For the same molecule, the tmax ([7]; human, plasma, healthy volunteers, oral single dose 0.025 mg, cohort geometric mean, read-out: tmax) was 1.44 h, the tmax ([7]; human, plasma, healthy volunteers, oral single dose 0.075 mg, cohort geometric mean, read-out: tmax) was 1.59 h and the tmax ([7]; human, plasma, healthy volunteers, oral single dose 0.23 mg, cohort geometric mean, read-out: tmax) was 1.38 h. For the same molecule, the tmax ([7]; human, plasma, healthy volunteers, oral single dose 0.68 mg, cohort geometric mean, read-out: tmax) was 2.08 h, the tmax ([7]; human, plasma, healthy volunteers, oral single dose 1.35 mg, cohort geometric mean, read-out: tmax) was 2.95 h and the Cmax/Dose ([7]; mean over cohorts) was 24.6 nM/mg. It also gave a Cmax/Dose ([7]; oral single dose 0.025 mg) of 25.2 nM/mg, a Cmax/Dose ([7]; oral single dose 0.075 mg) of 27.7 nM/mg and a Cmax/Dose ([7]; oral single dose 0.23 mg) of 27.7 nM/mg. For the same molecule, the Cmax/Dose ([7]; oral single dose 0.68 mg) was 22.1 nM/mg, the Cmax/Dose ([7]; oral single dose 1.35 mg) was 22.9 nM/mg and the Cmax/Dose ([7]; oral single dose 2 mg) was 21.94 nM/mg. The “selectivity to the α1β1γδ nAChR” value (α1β1γδ nAChR) was roughly 20 fold, the Ki (α7 nAChR [8]) was 5 nM and the EC50 (α7 nAChR [9]; read-out: activation of whole cell current IC50) was 2900 nM. The Emax (α7 nAChR [9]; read-out: intrinsic activity compared with acetylcholine) was 101%, the “selectivity to other nicotinic receptors and a panel of other targets” value [10] was 1000 fold and the “K (equation 7 and 8)” value [11] was 32.4 nm/mg. The “ka (absorption time constant)” value [11] was 1.57 h⁻¹ and the “ke (elimination time constant)” value [11] was 0.11 h⁻¹.
